# Measurements taken from PubChem BioAssay (NCI).
#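 A five-concentration, 48-hour dose response in 96-well plates underlies each endpoint, interpolated linearly between surrounding concentrations. GI50 is the concentration that inhibits growth by half. TGI: concentration producing complete growth inhibition.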
# Experiments:
# Experiment in all cases: DTP human tumour cell line panel, 48 h
# CAKI-1 renal = tested on: CAKI-1 renal
# MOLT-4 leukemia = tested on: MOLT-4 leukemia
# BT-549 breast = tested on: BT-549 breast
# UACC-62 melanoma = tested on: UACC-62 melanoma
# SK-MEL-28 melanoma = tested on: SK-MEL-28 melanoma
# DU-145 prostate = tested on: DU-145 prostate
# IGROV1 ovarian = tested on: IGROV1 ovarian
# NCI-H226 lung = tested on: NCI-H226 lung
# SK-OV-3 ovarian = tested on: SK-OV-3 ovarian
# HL-60(TB) leukemia = tested on: HL-60(TB) leukemia
# SF-268 CNS = tested on: SF-268 CNS
# A549 NSCLC = tested on: A549 NSCLC
# SNB-75 CNS = tested on: SNB-75 CNS
# HS 578T breast = tested on: HS 578T breast
# ACHN renal = tested on: ACHN renal
# OVCAR-8 ovarian = tested on: OVCAR-8 ovarian
# SNB-19 CNS = tested on: SNB-19 CNS
# SK-MEL-5 melanoma = tested on: SK-MEL-5 melanoma
# A498 renal = tested on: A498 renal
# NCI-H522 lung = tested on: NCI-H522 lung
# SN12C renal = tested on: SN12C renal
# UACC-257 melanoma = tested on: UACC-257 melanoma
# OVCAR-5 ovarian = tested on: OVCAR-5 ovarian
# RXF 393 renal = tested on: RXF 393 renal
# NCI-H460 lung = tested on: NCI-H460 lung
# U251 CNS = tested on: U251 CNS
# PC-3 prostate = tested on: PC-3 prostate
# CCRF-CEM leukemia = tested on: CCRF-CEM leukemia
# HOP-62 NSCLC = tested on: HOP-62 NSCLC
# MCF7 breast = tested on: MCF7 breast
# NCI/ADR-RES ovarian = tested on: NCI/ADR-RES ovarian
# HT29 colon = tested on: HT29 colon
# RPMI-8226 leukemia = tested on: RPMI-8226 leukemia
# HCT-116 colon = tested on: HCT-116 colon
# SR leukemia = tested on: SR leukemia
# 786-0 renal = tested on: 786-0 renal
# MDA-MB-231 breast = tested on: MDA-MB-231 breast
# SK-MEL-2 melanoma = tested on: SK-MEL-2 melanoma
# LOX IMVI melanoma = tested on: LOX IMVI melanoma
# OVCAR-3 ovarian = tested on: OVCAR-3 ovarian
# M14 melanoma = tested on: M14 melanoma
# KM12 colon = tested on: KM12 colon
# UO-31 renal = tested on: UO-31 renal
# HCC-2998 colon = tested on: HCC-2998 colon
# COLO 205 colon = tested on: COLO 205 colon
# OVCAR-4 ovarian = tested on: OVCAR-4 ovarian
# SF-295 CNS = tested on: SF-295 CNS
# HCT-15 colon = tested on: HCT-15 colon
# SF-539 CNS = tested on: SF-539 CNS
# MDA-MB-435 = tested on: MDA-MB-435
# K-562 leukemia = tested on: K-562 leukemia
# SW-620 colon = tested on: SW-620 colon
smiles,measurement,setting,value
Brc1ccc(SCN(CSc2ccc(Br)cc2)Cc2ccccc2)cc1,GI50,CAKI-1 renal,3.47 µM
same,TGI,CAKI-1 renal,12.5 µM
same,GI50,MOLT-4 leukemia,2.37 µM
same,TGI,MOLT-4 leukemia,6.82 µM
same,GI50,BT-549 breast,1.75 µM
same,TGI,BT-549 breast,3.9 µM
same,GI50,UACC-62 melanoma,3.01 µM
same,TGI,UACC-62 melanoma,9.34 µM
same,GI50,SK-MEL-28 melanoma,5.12 µM
same,TGI,SK-MEL-28 melanoma,23.4 µM
same,GI50,DU-145 prostate,6.12 µM
same,TGI,DU-145 prostate,21 µM
same,GI50,IGROV1 ovarian,2.64 µM
same,TGI,IGROV1 ovarian,7.25 µM
same,GI50,NCI-H226 lung,1.93 µM
same,TGI,NCI-H226 lung,4.39 µM
same,GI50,SK-OV-3 ovarian,7.12 µM
same,TGI,SK-OV-3 ovarian,51 µM
same,GI50,HL-60(TB) leukemia,2.35 µM
same,TGI,HL-60(TB) leukemia,5.36 µM
same,GI50,SF-268 CNS,2.31 µM
same,TGI,SF-268 CNS,12.6 µM
same,GI50,A549 NSCLC,2.41 µM
same,TGI,A549 NSCLC,11 µM
same,GI50,SNB-75 CNS,2.28 µM
same,TGI,SNB-75 CNS,10.9 µM
same,GI50,HS 578T breast,2.98 µM
same,TGI,HS 578T breast,> 100 µM
same,GI50,ACHN renal,4.49 µM
same,TGI,ACHN renal,19 µM
same,GI50,OVCAR-8 ovarian,3.71 µM
same,TGI,OVCAR-8 ovarian,17.9 µM
same,GI50,SNB-19 CNS,2.69 µM
same,TGI,SNB-19 CNS,23.5 µM
same,GI50,SK-MEL-5 melanoma,1.77 µM
same,TGI,SK-MEL-5 melanoma,3.46 µM
same,GI50,A498 renal,1.51 µM
same,TGI,A498 renal,3.47 µM
same,GI50,NCI-H522 lung,2.43 µM
same,TGI,NCI-H522 lung,5.62 µM
same,GI50,SN12C renal,1.38 µM
same,TGI,SN12C renal,14.2 µM
same,GI50,UACC-257 melanoma,4.05 µM
same,TGI,UACC-257 melanoma,17.5 µM
same,GI50,OVCAR-5 ovarian,2.89 µM
same,TGI,OVCAR-5 ovarian,11.4 µM
same,GI50,RXF 393 renal,5.54 µM
same,TGI,RXF 393 renal,20.4 µM
same,GI50,NCI-H460 lung,2.78 µM
same,TGI,NCI-H460 lung,12 µM
same,GI50,U251 CNS,2.02 µM
same,TGI,U251 CNS,6.82 µM
same,GI50,PC-3 prostate,2.34 µM
same,TGI,PC-3 prostate,10.3 µM
same,GI50,CCRF-CEM leukemia,2.1 µM
same,TGI,CCRF-CEM leukemia,7.4 µM
same,GI50,HOP-62 NSCLC,3.2 µM
same,TGI,HOP-62 NSCLC,14.2 µM
same,GI50,MCF7 breast,3.06 µM
same,TGI,MCF7 breast,13.3 µM
same,GI50,NCI/ADR-RES ovarian,4 µM
same,TGI,NCI/ADR-RES ovarian,95.8 µM
same,GI50,HT29 colon,5.05 µM
same,TGI,HT29 colon,18 µM
same,GI50,RPMI-8226 leukemia,3.31 µM
same,TGI,RPMI-8226 leukemia,10.5 µM
same,GI50,HCT-116 colon,3.66 µM
same,TGI,HCT-116 colon,14.4 µM
same,GI50,SR leukemia,2.77 µM
same,TGI,SR leukemia,7.77 µM
same,GI50,786-0 renal,4.3 µM
same,TGI,786-0 renal,15.5 µM
same,GI50,MDA-MB-231 breast,1.69 µM
same,TGI,MDA-MB-231 breast,4.3 µM
same,GI50,SK-MEL-2 melanoma,6.06 µM
same,TGI,SK-MEL-2 melanoma,19.9 µM
same,GI50,LOX IMVI melanoma,1.61 µM
same,TGI,LOX IMVI melanoma,3.19 µM
same,GI50,OVCAR-3 ovarian,3.54 µM
same,TGI,OVCAR-3 ovarian,11.4 µM
same,GI50,M14 melanoma,3.79 µM
same,TGI,M14 melanoma,14.2 µM
same,GI50,KM12 colon,2.67 µM
same,TGI,KM12 colon,10.9 µM
same,GI50,UO-31 renal,1.93 µM
same,TGI,UO-31 renal,8.64 µM
same,GI50,HCC-2998 colon,11.5 µM
same,TGI,HCC-2998 colon,25.5 µM
same,GI50,COLO 205 colon,3.85 µM
same,TGI,COLO 205 colon,13.7 µM
same,GI50,OVCAR-4 ovarian,10.4 µM
same,TGI,OVCAR-4 ovarian,87.8 µM
same,GI50,SF-295 CNS,1.28 µM
same,TGI,SF-295 CNS,3.49 µM
same,GI50,HCT-15 colon,3.56 µM
same,TGI,HCT-15 colon,18.8 µM
same,GI50,SF-539 CNS,1.92 µM
same,TGI,SF-539 CNS,3.88 µM
same,GI50,MDA-MB-435,3.1 µM
same,TGI,MDA-MB-435,12.2 µM
same,GI50,K-562 leukemia,5.44 µM
same,TGI,K-562 leukemia,60.6 µM
same,GI50,SW-620 colon,3.58 µM
same,TGI,SW-620 colon,15.1 µM
